Test results from ChEMBL document CHEMBL1671673, “In vitro activity of colistin (polymyxin E) against 3,480 isolates of gram-negative bacilli obtained from patients in Canadian hospitals in the CANWARD study, 2007-2008” (Antimicrob Agents Chemother, 2009).

Key:
Format in all cases: functional, organism-based
Design in all cases: scale not given: the % may be the effect or the level left
Pseudomonas aeruginosa [1] = test: Antibacterial activity against Gentamicin-resistant Pseudomonas aeruginosa assessed as susceptible isolates at minimum inhibitory concentration of 8 ug/ml by CLSI broth microdilution method
Pseudomonas aeruginosa [2] = test: Antibacterial activity against Meropenem-resistant Pseudomonas aeruginosa assessed as susceptible isolates at minimum inhibitory concentration of 1 ug/ml by CLSI broth microdilution method
Pseudomonas aeruginosa [3] = test: Antibacterial activity against Meropenem-resistant Pseudomonas aeruginosa assessed as susceptible isolates at minimum inhibitory concentration of 2 ug/ml by CLSI broth microdilution method
Pseudomonas aeruginosa [4] = test: Antibacterial activity against Piperacillin-resistant Pseudomonas aeruginosa assessed as susceptible isolates at minimum inhibitory concentration of 0.5 ug/ml by CLSI broth microdilution method
Pseudomonas aeruginosa [5] = test: Antibacterial activity against MDR3 Pseudomonas aeruginosa assessed as susceptible isolates at minimum inhibitory concentration of 0.5 ug/ml by CLSI broth microdilution method
Pseudomonas aeruginosa [6] = test: Antibacterial activity against MDR4 Pseudomonas aeruginosa assessed as susceptible isolates at minimum inhibitory concentration of 1 ug/ml by CLSI broth microdilution method
Pseudomonas aeruginosa [7] = test: Antibacterial activity against MDR4 Pseudomonas aeruginosa assessed as susceptible isolates at minimum inhibitory concentration of 2 ug/ml by CLSI broth microdilution method
Pseudomonas aeruginosa [8] = test: Antibacterial activity against Pseudomonas aeruginosa assessed as susceptible isolates at minimum inhibitory concentration of <=2 ug/ml by CLSI broth microdilution method
Pseudomonas aeruginosa [9] = test: Antibacterial activity against tazobactam-resistant Pseudomonas aeruginosa assessed as susceptible isolates at minimum inhibitory concentration of 4 ug/ml by CLSI broth microdilution method
Serratia marcescens [10] = test: Antibacterial activity against Serratia marcescens assessed as susceptible isolates at minimum inhibitory concentration of 0.5 ug/ml by CLSI broth microdilution method
Serratia marcescens [11] = test: Antibacterial activity against Serratia marcescens assessed as susceptible isolates at minimum inhibitory concentration of <=0.06 ug/ml by CLSI broth microdilution method
Proteus mirabilis [12] = test: Antibacterial activity against Proteus mirabilis assessed as susceptible isolates at minimum inhibitory concentration of 8 ug/ml by CLSI broth microdilution method
Proteus mirabilis [13] = test: Antibacterial activity against Proteus mirabilis assessed as susceptible isolates at minimum inhibitory concentration of 4 ug/ml by CLSI broth microdilution method
Proteus mirabilis [14] = test: Antibacterial activity against Proteus mirabilis assessed as susceptible isolates at minimum inhibitory concentration of 2 ug/ml by CLSI broth microdilution method
Proteus mirabilis [15] = test: Antibacterial activity against Proteus mirabilis assessed as susceptible isolates at minimum inhibitory concentration of 1 ug/ml by CLSI broth microdilution method
Proteus mirabilis [16] = test: Antibacterial activity against Proteus mirabilis assessed as susceptible isolates at minimum inhibitory concentration of <=0.06 ug/ml by CLSI broth microdilution method
Enterobacter cloacae = test: Antibacterial activity against Enterobacter cloacae assessed as susceptible isolates at minimum inhibitory concentration of 0.5 ug/ml by CLSI broth microdilution method
Klebsiella pneumoniae [17] = test: Antibacterial activity against ESBL-producing Klebsiella pneumoniae assessed as susceptible isolates at minimum inhibitory concentration of >16 ug/ml by CLSI broth microdilution method
Klebsiella pneumoniae [18] = test: Antibacterial activity against ESBL-producing Klebsiella pneumoniae assessed as susceptible isolates at minimum inhibitory concentration of 1 ug/ml by CLSI broth microdilution method
Klebsiella pneumoniae [19] = test: Antibacterial activity against ESBL-producing Klebsiella pneumoniae assessed as susceptible isolates at minimum inhibitory concentration of 0.12 ug/ml by CLSI broth microdilution method
Pseudomonas aeruginosa [20] = test: Antibacterial activity against Pseudomonas aeruginosa assessed as susceptible isolates at minimum inhibitory concentration of 4 ug/ml by CLSI broth microdilution method
Pseudomonas aeruginosa [21] = test: Antibacterial activity against Pseudomonas aeruginosa assessed as susceptible isolates at minimum inhibitory concentration of 2 ug/ml by CLSI broth microdilution method
Pseudomonas aeruginosa [22] = test: Antibacterial activity against Pseudomonas aeruginosa assessed as susceptible isolates at minimum inhibitory concentration of <=0.06 ug/ml by CLSI broth microdilution method
Escherichia coli [23] = test: Antibacterial activity against ESBL-producing Escherichia coli assessed as susceptible isolates at minimum inhibitory concentration of 4 ug/ml by CLSI broth microdilution method
Escherichia coli [24] = test: Antibacterial activity against ESBL-producing Escherichia coli assessed as susceptible isolates at minimum inhibitory concentration of 2 ug/ml by CLSI broth microdilution method
Escherichia coli [25] = test: Antibacterial activity against ESBL-producing Escherichia coli assessed as susceptible isolates at minimum inhibitory concentration of 1 ug/ml by CLSI broth microdilution method
[26] = system: Stenotrophomonas maltophilia; test: Antibacterial activity against Stenotrophomonas maltophilia assessed as susceptible isolates at minimum inhibitory concentration of 0.12 ug/ml by CLSI broth microdilution method
[27] = system: Stenotrophomonas maltophilia; test: Antibacterial activity against Stenotrophomonas maltophilia assessed as susceptible isolates at minimum inhibitory concentration of 1 ug/ml by CLSI broth microdilution method
[28] = system: Stenotrophomonas maltophilia; test: Antibacterial activity against Stenotrophomonas maltophilia assessed as susceptible isolates at minimum inhibitory concentration of 16 ug/ml by CLSI broth microdilution method
Acinetobacter baumannii = test: Antibacterial activity against Acinetobacter baumannii assessed as susceptible isolates at minimum inhibitory concentration of 8 ug/ml by CLSI broth microdilution method
Pseudomonas aeruginosa [29] = test: Antibacterial activity against Amikacin-resistant Pseudomonas aeruginosa assessed as susceptible isolates at minimum inhibitory concentration of 2 ug/ml by CLSI broth microdilution method
Pseudomonas aeruginosa [30] = test: Antibacterial activity against Amikacin-resistant Pseudomonas aeruginosa assessed as susceptible isolates at minimum inhibitory concentration of 16 ug/ml by CLSI broth microdilution method
Pseudomonas aeruginosa [31] = test: Antibacterial activity against Ciprofloxacin-resistant Pseudomonas aeruginosa assessed as susceptible isolates at minimum inhibitory concentration of 0.5 ug/ml by CLSI broth microdilution method
Pseudomonas aeruginosa [32] = test: Antibacterial activity against Ciprofloxacin-resistant Pseudomonas aeruginosa assessed as susceptible isolates at minimum inhibitory concentration of 8 ug/ml by CLSI broth microdilution method
Pseudomonas aeruginosa [33] = test: Antibacterial activity against Ciprofloxacin-resistant Pseudomonas aeruginosa assessed as susceptible isolates at minimum inhibitory concentration of 16 ug/ml by CLSI broth microdilution method
Pseudomonas aeruginosa [34] = test: Antibacterial activity against Gentamicin-resistant Pseudomonas aeruginosa assessed as susceptible isolates at minimum inhibitory concentration of 1 ug/ml by CLSI broth microdilution method
Pseudomonas aeruginosa [35] = test: Antibacterial activity against Gentamicin-resistant Pseudomonas aeruginosa assessed as susceptible isolates at minimum inhibitory concentration of 4 ug/ml by CLSI broth microdilution method
Klebsiella oxytoca = test: Antibacterial activity against Klebsiella oxytoca assessed as susceptible isolates at minimum inhibitory concentration of 1 ug/ml by CLSI broth microdilution method
Serratia marcescens [36] = test: Antibacterial activity against Serratia marcescens assessed as susceptible isolates at minimum inhibitory concentration of >16 ug/ml by CLSI broth microdilution method
Serratia marcescens [37] = test: Antibacterial activity against Serratia marcescens assessed as susceptible isolates at minimum inhibitory concentration of 16 ug/ml by CLSI broth microdilution method

## COLISTIN
Pseudomonas aeruginosa [1]
  Activity: 99%
Pseudomonas aeruginosa [2]
  Activity: 33.3%
Pseudomonas aeruginosa [3]
  Activity: 98.2%
Pseudomonas aeruginosa [4]
  Activity: 1.8%
Pseudomonas aeruginosa [5]
  Activity: 4%
Pseudomonas aeruginosa [6]
  Activity: 42.3%
Pseudomonas aeruginosa [7]
  Activity: 100%
Pseudomonas aeruginosa [8]
  Activity: 91.6%
Pseudomonas aeruginosa [9]
  Activity: 100%
Serratia marcescens [10]
  Activity: 0%
Serratia marcescens [11]
  Activity: 0%
Proteus mirabilis [12]
  Activity: 0%
Proteus mirabilis [13]
  Activity: 0%
Proteus mirabilis [14]
  Activity: 0%
Proteus mirabilis [15]
  Activity: 0%
Proteus mirabilis [16]
  Activity: 0%
Enterobacter cloacae
  Activity: 69.9%
Klebsiella pneumoniae [17]
  Activity: 100%
Klebsiella pneumoniae [18]
  Activity: 95%
Klebsiella pneumoniae [19]
  Activity: 0.8%
Pseudomonas aeruginosa [20]
  Activity: 98.9%
Pseudomonas aeruginosa [21]
  Activity: 91.6%
Pseudomonas aeruginosa [22]
  Activity: 0%
Escherichia coli [23]
  Activity: 99.5%
Escherichia coli [24]
  Activity: 99.4%
Escherichia coli [25]
  Activity: 97.3%
[26]
  Activity: 0%
[27]
  Activity: 10.8%
[28]
  Activity: 56.6%
Acinetobacter baumannii
  Activity: 93.5%
Pseudomonas aeruginosa [29]
  Activity: 97.4%
Pseudomonas aeruginosa [30]
  Activity: 97.4%
Pseudomonas aeruginosa [31]
  Activity: 4.1%
Pseudomonas aeruginosa [32]
  Activity: 98.6%
Pseudomonas aeruginosa [33]
  Activity: 98.6%
Pseudomonas aeruginosa [34]
  Activity: 35.6%
Pseudomonas aeruginosa [35]
  Activity: 99%
Klebsiella oxytoca
  Activity: 91.7%
Serratia marcescens [36]
  Activity: 100%
Serratia marcescens [37]
  Activity: 1.9%
